Here are results for two compounds from ChEMBL document CHEMBL4725296, “The novel HOCl fluorescent probe CAN induced A549 apoptosis by inhibiting chlorination activity of MPO” (Bioorg Med Chem Lett, 2020).

SMILES strings stand for the structures. pIC50: −log10 of the molar value. The source made the active and inactive calls. No cut-off for these calls is given here.

In data set [1] the test system is RAW264.7. Description: Cytotoxicity against mouse RAW264.7 cells assessed as reduction in cell viability at 1 uM incubated for 12 hrs. The data set is classed as cell-based. As to conditions: raw264.7, 12 h.
For data set [2], the system named is Chorioallantoic membrane. Description: Induction of angiogenesis in chicken chorioallantoic membrane at 50 to 100 uM by CAM assay. Details: species or system Gallus gallus. As to conditions: dose 50-100 µM.
The subject of data set [3] is RAW264.7. Description: Cytotoxicity against mouse RAW264.7 cells assessed as reduction in cell viability at 10 uM incubated for 12 hrs relative to control. The data set is classed as cell-based. As to conditions: raw264.7, 12 h.
For data set [4], the system named is A549. In words: Induction of morphological changes in human A549 cells assessed as nuclear condensation at 0.5 to 10 uM incubated for 48 hrs by AO and Hoechst 33258 staining based assay. The data set is classed as functional, cell-based. As to conditions: dose microM 0.5-10, time 48.0 hrs.
The test system of another data set is HUVEC. In words: Cytotoxicity against HUVEC assessed as reduction in cell viability. As to conditions: human. Format: cell-based.
For data set [5], the system named is A549. In words: Induction of necrosis in human A549 cells by LDH assay. Format: functional, cell-based.
In data set [6] the test system is A549. In words: Cytotoxicity against human A549 cells assessed as reduction in cell growth incubated for 24 to 48 hrs. The data set is classed as functional, cell-based.
In data set [7] the test system is RAW264.7. In words: Cytotoxicity against mouse RAW264.7 cells assessed as reduction in cell viability at 5 uM incubated for 12 hrs relative to control. The data set is classed as cell-based. As to conditions: raw264.7, 12 h.
The subject of data set [8] is A549. Description: Induction of morphological changes in human A549 cells assessed as appearance of round shaped cells at 1 uM incubated for 48 hrs. Format: functional, cell-based.
Data set [9] concerns the target T1, Myeloperoxidase (Homo sapiens) (UniProt P05164).
T1 sequence (whole entry): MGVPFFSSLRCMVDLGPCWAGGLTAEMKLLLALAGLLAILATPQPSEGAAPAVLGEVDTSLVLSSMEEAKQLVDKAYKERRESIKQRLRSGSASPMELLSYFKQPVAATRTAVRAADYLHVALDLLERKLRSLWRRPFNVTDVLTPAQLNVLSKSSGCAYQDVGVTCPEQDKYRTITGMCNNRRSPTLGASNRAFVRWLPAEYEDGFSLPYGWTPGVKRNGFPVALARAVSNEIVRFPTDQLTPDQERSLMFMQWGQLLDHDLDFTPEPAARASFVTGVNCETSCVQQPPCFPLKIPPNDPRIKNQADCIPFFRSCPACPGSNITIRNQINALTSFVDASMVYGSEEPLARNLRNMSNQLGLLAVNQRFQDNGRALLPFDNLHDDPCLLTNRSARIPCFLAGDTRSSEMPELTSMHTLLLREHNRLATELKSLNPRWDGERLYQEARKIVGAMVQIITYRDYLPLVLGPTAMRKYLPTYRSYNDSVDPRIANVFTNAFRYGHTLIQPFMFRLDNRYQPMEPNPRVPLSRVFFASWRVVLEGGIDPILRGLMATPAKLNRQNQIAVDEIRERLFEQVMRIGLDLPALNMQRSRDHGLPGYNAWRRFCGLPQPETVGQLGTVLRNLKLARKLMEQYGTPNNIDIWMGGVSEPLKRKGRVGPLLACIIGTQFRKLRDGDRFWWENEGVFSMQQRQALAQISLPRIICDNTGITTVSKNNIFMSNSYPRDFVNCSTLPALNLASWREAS
Description: Effect on MPO in human A549 cells assessed as reduction in peroxidation activity at 10 uM measured after 3 to 12 hrs by fluorescence assay. As to conditions: filed as modulator, time hrs 3-12. Format: cell-based.

In data set [10] the test system is Chorioallantoic membrane. Description: Induction of angiogenesis in chicken chorioallantoic membrane at 200 uM by CAM assay. Details: species or system Gallus gallus.
Data set [11] is described as follows: Drug uptake in LPS stimulated mouse RAW264.7 cells assessed as increase in HOCL mediated fluorescence intensity at 1 uM after 1 hr by confocal microscopic analysis. The data set is classed as ADME. As to conditions: raw264.7, 1 h.
Data set [12] has as its system A549. In words: Cytotoxicity against human A549 cells assessed as reduction in cell growth at 1 to 10 uM incubated for 24 to 48 hrs. The data set is classed as functional, cell-based. As to conditions: dose microM 1-10, time hrs 24-48.
In data set [13] the test system is A549. Description: Antitumor activity against human A549 cells treated chicken chorioallantoic membrane assessed as reduction in tumour mass at 50 to 100 uM measured after 3 to 8 days. The data set is classed as functional, cell-based. As to conditions: dose microM 50-100, time day 3-8.
The test system of data set [14] is A549. In words: Induction of morphological changes in human A549 cells assessed as nuclear fragmentation at 0.5 to 10 uM incubated for 48 hrs by AO and Hoechst 33258 staining based assay. Format: functional, cell-based. As to conditions: dose microM 0.5-10, time 48.0 hrs.
In data set [15] the test system is A549. In words: Induction of apoptosis in human A549 cells assessed as increase in cleaved PARP1 level incubated for 24 hrs by Western blot analysis. The data set is classed as functional, cell-based.
The test system of data set [16] is A549. In words: Antitumor activity against human A549 cells treated chicken chorioallantoic membrane assessed as increase in apoptosis cells in tumour mass at 50 to 100 uM by TUNEL staining based confocal microscopic analysis. The data set is classed as functional, cell-based. As to conditions: dose microM 50-100.
Data set [17] addresses T1, Myeloperoxidase (Homo sapiens). In words: Effect on MPO in human A549 cells assessed as reduction in chlorination activity at 10 uM measured after 3 to 12 hrs by fluorescence assay. The data set is classed as cell-based. As to conditions: filed as modulator, time hrs 3-12.
The test system of data set [18] is RAW264.7. Description: Photostability of compound in mouse RAW264.7 cells at 1 uM measured for 10 to 120 secs. Format: ADME, cell-based. As to conditions: raw264.7, 1 µM, time 10-120 sec.
Data set [19] relates to A549. In words: Antitumor activity against human A549 cells treated chicken chorioallantoic membrane assessed as increase in apoptosis cells in tumour mass at 200 uM by TUNEL staining based confocal microscopic analysis. Format: functional, cell-based.
The test system of data set [20] is A549. In words: Antitumor activity against human A549 cells treated chicken chorioallantoic membrane assessed as reduction in tumour mass at 200 uM measured after 3 to 8 days. Format: functional, cell-based. As to conditions: time day 3-8.

The pIC50 is the negative decadic logarithm of the IC50, by convention in mol/L. Regarding `CCN(CC)c1ccc2cc(C3Nc4cccc5cccc(c45)N3)c(=O)oc2c1`, the Activity entry is recorded as “Non-Toxic” in the data set with RAW264.7 [1]; “Non-Toxic” in the data set on Chorioallantoic membrane [2]; 50.5% in the data set on RAW264.7 [3]; “Non-Toxic” in the data set on HUVEC; 61% in the data set on RAW264.7 [7]; “Non-Toxic” with Chorioallantoic membrane [10]. Further, the outcome (with A549 [4]; in the data set with A549 [8]; in data set [9]; in the data set with A549 [12]; with A549 [13]; in the data set with A549 [14]) was Active. In addition, the result (with A549 [15]; with A549 [16]; in data set [17]) was Active. In addition, the outcome in the data set with A549 [5] was inactive. Further, in the data set with A549 [6], the pIC50 was 5.37. The Drug uptake result in data set [11] is on record as “Active”. In the data set with RAW264.7 [18], the Stabilty entry is recorded as “Stable”.
Regarding `O=c1[nH]cc(F)c(=O)[nH]1`, the outcome in the data set with A549 [19] and in the data set on A549 [20] was Active.
